Test results: US6818612B2, “Use of parvovirus capsid particles in the inhibition of cell proliferation and migration” (priority 1998, dated 2004)

Assays:
[1] = system: human fetal liver cells; test: Colony formation assay (Stem cell CFU kit, 11 day) of fetal liver cells; assay type: cell-based
Source text: In a first set of experiments, it was discovered that B19 parvovirus capsids inhibit hematopoiesis and that these molecules could be used to reduce the overproduction of red blood cells, white blood cells, and blood platelets, as is experienced by patients suffering from hematological proliferative diseases, such as Polycytemia Vera. (See FIG. 1A). In a first set of experiments, fresh human fetal liver cells, umbilical cord blood cells, and bone marrow cells were contacted with recombinant B19 parvovirus capsids in a colony formation assay. The general features of a colony formation assay are depicted in FIG. 1B. The ability of the B19 parvovirus capsids to inhibit hematopoiesis was verified by the reduction of colony formation in the presence of the capsids, as compared to untreated control populations of cells. A more detailed description of these experiments is provided below.
To obtain fetal liver tissue, human fetuses 6-12 weeks of gestational age were obtained from legal abortions; the patients had volunteered to donate fetal tissue. Gestational age was estimated according to specific anatomical markers and is given as menstruational age. Abortions were performed with vacuum aspirations. Fetal liver was dissected under sterile conditions, placed in a sterile tube containing RPMI1640 and disintegrated by passage through a vinyl mesh to form a single cell suspension. Nucleated cells were then washed three times, counted and diluted in culture medium.
(§1) A commercial kit—the “Stem cell CFU kit” (GIBCO BRL, Life Technology Inc., NY, USA)—was used to perform the colony formation assays. The kit provides a semi-solid support that mimics the extracellular matrix produced by stromal cells. Other components included in the kit are: Iscove's modified Dulbecco's medium, modified fetal bovine serum, methylcellulose, 2-mercaptoethanol, conditioned medium and erythropoietin. The colonies that were formed in the assay were identified as BFU-E (burst forming unit-erythroid cells) with densely packed hemoglobonized cells, CFU-GM (colony forming units-granulocytes, macrophages) with arrangements of non-hemoglobinized cells, and CFU-GEMM (colony forming units-granulocytes, erythroid cells, macrophages, megakaryocytes) with hemoglobinized cells and small and large peripheral cells.
(§2) Recombinant B19 parvovirus empty capsid particles (Kajigaya et al., Proc Natl Acad Sci USA, 88:4646 (1991)) were prepared in a recombinant baculovirus-insect cell (Spodofera frugiperda) expression system. (Kajigaya et al., Proc Natl Acad Sci USA, 88:4646 (1991)). The isolated or purified capsids were diluted in buffer (20 mM Tris, 0.5M NaCl, pH 8.5) and 30 μL of each dilution was added to approximately 25×10^3 cells (50×10^3 for postnatal cells) in 100 μL of culture medium and incubated for 1 hour at 4° C. The mixtures were then transferred to incubation dishes and culture medium was added to a final volume of 0.5 ml per well. The cells were then incubated for 11 days in a humidified atmosphere at 5% CO2, and were scored for BFU-E, CFU-GM and CFU-GEMM derived colony formation.

[2] = system: hematopoietic cells obtained from the bone marrow of monkeys; test: Colony formation assay on monkey bone marrow cells (Baboon); assay type: cell-based; conditions: FIG. 2, varying concentrations of capsid
Method: (§3) Additionally, colony formation assays in the presence of B19 parvovirus […] were performed, as described above, using hematopoietic cells obtained from the bone marrow of monkeys (Baboons and Macaques).

[3] = system: adult bone marrow cells; test: Colony formation assay on adult bone marrow cells; assay type: cell-based, human; conditions: for Colony Counts (% of medium control) BFU-E / Colony Counts (% of medium control) CFU-GEMM / Colony Counts (% of medium control) CFU-GM: Bone marrow cells, 11 day culture
Source text: as §1, §2
(§4) The inhibitory effect of B19 parvovirus capsids on colony formation was also tested using fresh stem cells derived from cord blood and adult bone marrow samples. Colony formation assays in the presence of B19 parvovirus capsids were performed on cells obtained from umbilical cord blood and bone marrow using the protocol described above. Umbilical cord blood samples were obtained immediately after vaginal delivery from normal births. Samples of adult bone marrow were obtained from healthy allogeneic donors. Suspensions of fresh cells were heparinized and diluted in 0.9% NaCl and separated on Lymphoprep (Nycomed, Parma, Oslo, Norway) for gradient centrifugation at 2000 rpm for 20 min. Cells were carefully removed with a Pasteur pipette, washed three times in 0.9% NaCl, counted and diluted in culture medium in preparation for the colony formation assays.

[4] = system: hematopoietic cells obtained from the bone marrow of monkeys; test: Colony formation assay on monkey bone marrow cells (Macaque); assay type: cell-based; conditions: FIG. 2, varying concentrations of capsid
Method: as §3

[5] = system: umbilical cord blood cells; test: Colony formation assay on cord blood cells; assay type: cell-based, human; conditions: for Colony Counts (% of medium control) BFU-E / Colony Counts (% of medium control) CFU-GEMM / Colony Counts (% of medium control) CFU-GM: Cord blood cells, 11 day culture
Source text: as §1, §2, §4

[6] = capsid only, B19 parvovirus capsid 0.14 μg/ml, fetal liver cells, 11 day culture
[7] = capsid only, B19 parvovirus capsid 7 μg/ml, fetal liver cells, 11 day culture
[8] = fetal liver cells, 0.07 μg/ml VP1/2 capsid, FIG. 3
[9] = fetal liver cells, B19 parvovirus capsid 0.007 μg/ml, 11 day culture
[10] = fetal liver cells, B19 parvovirus capsid 0.7 μg/ml, 11 day culture
[11] = fetal liver cells, B19 parvovirus capsid 70.0 μg/ml, pre-incubated prior to 11 day culture
[12] = B19 parvovirus capsid 0.0007 μg/ml
[13] = B19 parvovirus capsid 0.007 μg/ml
[14] = B19 parvovirus capsid 0.07 μg/ml
[15] = B19 parvovirus capsid 0.7 μg/ml
[16] = B19 parvovirus capsid 7.0 μg/ml
[17] = compared with fetal liver cells

## B19 parvovirus capsid: Recombinant empty B19 parvovirus capsid particles (95% VP2, 5% VP1) from a baculovirus-insect cell expression system
[1]; B19 parvovirus capsids 0.14 μg/ml, in the absence of sera
  inhibition of fetal liver cell colony formation: significantly inhibited
[1]; [6]
  Colony Counts (% of medium control) BFU-E: 18% of medium control
  Colony Counts (% of medium control) CFU-GEMM: 63% of medium control
  Colony Counts (% of medium control) CFU-GM: 17% of medium control
[1]; [7]
  Colony Counts (% of medium control) BFU-E: 43% of medium control
  Colony Counts (% of medium control) CFU-GEMM: 21% of medium control
  Colony Counts (% of medium control) CFU-GM: 30% of medium control
[1]; [8]
  colony formation, % of the medium control: ~60 % of the medium control
  inhibition of colony formation: approximately 40%
[1]; fetal liver cells, 70.0 μg/ml B19 parvovirus capsid
  inhibition of colony formation of hematopoietic cells: considerable inhibition
[1]; fetal liver cells, 11 day colony formation assay, 'as little as' / 'as low as'
  lowest concentration at which inhibition of colony formation of hematopoietic cells was seen: 0.007 µg/mL
[1]; [9]
  Colony Counts (% of medium control) BFU-E: 79% of medium control
  Colony Counts (% of medium control) CFU-GEMM: 94% of medium control
  Colony Counts (% of medium control) CFU-GM: 95% of medium control
[1]; [10]
  Colony Counts (% of medium control) BFU-E: 39% of medium control
  Colony Counts (% of medium control) CFU-GEMM: 63% of medium control
  Colony Counts (% of medium control) CFU-GM: 54% of medium control
[1]; [11]
  Colony Counts (% of medium control) BFU-E: 22% of medium control
  Colony Counts (% of medium control) CFU-GEMM: 31% of medium control
  Colony Counts (% of medium control) CFU-GM: 14% of medium control
[2]
  primate hematopoietic cell growth: decreased in concordance with an increase in concentration of B19 parvovirus capsid
[3]; [12]
  Colony Counts (% of medium control) BFU-E: 86% of medium control
  Colony Counts (% of medium control) CFU-GEMM: 78% of medium control
  Colony Counts (% of medium control) CFU-GM: 77% of medium control
[3]; [13]
  Colony Counts (% of medium control) BFU-E: 76% of medium control
  Colony Counts (% of medium control) CFU-GEMM: 78% of medium control
  Colony Counts (% of medium control) CFU-GM: 80% of medium control
[3]; [14]
  Colony Counts (% of medium control) BFU-E: 63% of medium control
  Colony Counts (% of medium control) CFU-GEMM: 44% of medium control
  Colony Counts (% of medium control) CFU-GM: 41% of medium control
[3]; [15]
  Colony Counts (% of medium control) BFU-E: 43% of medium control
  Colony Counts (% of medium control) CFU-GEMM: 28% of medium control
  Colony Counts (% of medium control) CFU-GM: 45% of medium control
[3]; [16]
  Colony Counts (% of medium control) BFU-E: 18% of medium control
  Colony Counts (% of medium control) CFU-GEMM: 6% of medium control
  Colony Counts (% of medium control) CFU-GM: 36% of medium control
[3]; [17]
  ability to inhibit hematopoietic cells obtained from bone marrow: comparable to that exhibited with fetal liver cells
[4]
  primate hematopoietic cell growth: decreased in concordance with an increase in concentration of B19 parvovirus capsid
[5]; [12]
  Colony Counts (% of medium control) BFU-E: 84% of medium control
  Colony Counts (% of medium control) CFU-GEMM: 93% of medium control
  Colony Counts (% of medium control) CFU-GM: 79% of medium control
[5]; [13]
  Colony Counts (% of medium control) BFU-E: 57% of medium control
  Colony Counts (% of medium control) CFU-GEMM: 70% of medium control
  Colony Counts (% of medium control) CFU-GM: 67% of medium control
[5]; [14]
  Colony Counts (% of medium control) BFU-E: 49% of medium control
  Colony Counts (% of medium control) CFU-GEMM: 50% of medium control
  Colony Counts (% of medium control) CFU-GM: 72% of medium control
[5]; [15]
  Colony Counts (% of medium control) BFU-E: 33% of medium control
  Colony Counts (% of medium control) CFU-GEMM: 43% of medium control
  Colony Counts (% of medium control) CFU-GM: 62% of medium control
[5]; [16]
  Colony Counts (% of medium control) BFU-E: 10% of medium control
  Colony Counts (% of medium control) CFU-GEMM: 43% of medium control
  Colony Counts (% of medium control) CFU-GM: 54% of medium control
[5]; FIG. 1C, varying concentrations of capsid
  growth of cells obtained from human cord blood: decreased as the concentration of B19 parvovirus capsid increased
[5]; [17]
  ability to inhibit hematopoietic cells obtained from cord blood: comparable to that exhibited with fetal liver cells
